Results taken from US10160948B2, “Pluripotent embryonic-like stem cells, compositions, methods and uses thereof” (ABT HOLDING COMPANY, priority 1999, dated 2018).
Marks after values point to notes of the source that are not given here.

How the values were obtained:
pluripotent stem cells = assay: Proliferation and phenotypic responses to bioactive factors: pluripotent cells; type: cell-based; conditions: for Phenotypic Expression, Pluripotent: presence and approximate distribution of differentiated phenotypes within the culture wells
Source text: (§1) Having access to mixed populations of progenitor stem cells, progenitor stem cell clones, and pluripotent stem cell clones permits one to address the influence of various bioactive factors (e.g. recombinant growth factors, purified compounds, and novel inductive factors) on the growth characteristics and phenotypic expression of these stem cells.
(§2) Cryopreserved cells are thawed and plated in MSC-1 at 5, 10, or 20×10^3 cells per well of gelatinized 24-well plates following the standard protocol. Twenty-four hours after initial plating the medium is changed to testing medium (TM) 1 to 6 (TM-1, TM-2, TM-3, TM-4, TM-5, or TM-6). TM-1 to TM-4 consist of Ultraculture (cat. no. 12-725B, lot. nos. OMO455 [TM-1], 1M1724 [TM-2], 2M0420 [TM-3], or 2M0274 [TM-4], Bio-Whittaker, Walkersville, Md.), medium (EMEM or Opti-MEM 0.01 mM β-mercaptoethanol), and 1% (v/v) antibiotic-antimycotic, pH 7.4. TM-5 consists of 98% (v/v) medium, 1% (v/v) HS, and 1% (v/v) antibiotic-antimycotic, pH 7.4. TM-6 consists of 98.5% (v/v) medium, 0.5% (v/v) HS, and 1% (v/v) antibiotic-antimycotic, pH 7.4. […] Four testing media (TM#'s 1-4), each containing various concentrations of Ultraculture, were used as. […] The four Ultraculture-based testing media were: TM-1=15% (v/v) Ultraculture (Lot no. OMO455): 84% (v/v) medium: 1% (v/v) antibiotics; TM-2=15% (v/v) Ultraculture (Lot no. 1M1724): 84% (v/v) medium: 1% (v/v) antibiotics; TM-3=50% (v/v) Ultraculture (Lot no. 2M0420): 49% (v/v) medium: 1% (v/v) antibiotics; and TM-4=75% (v/v) Ultraculture (Lot no. 2M0274): 24% (v/v) medium: 1% (v/v) antibiotics. Pre-incubation for 24 hr in testing medium alone is used to wash out any potential synergistic components in the MSC-1 medium. Twenty-four hours later the testing medium is changed to one of the following. For controls, TM-1 to TM-6 alone is used. To identify clones of progenitor cells, the medium is replaced with TM-1 to TM-6 containing 2 μg/ml insulin (Sigma), an agent that accelerates the appearance of phenotypic expression markers in progenitor cells (TABLE 12). To identify clones of pluripotent cells, the medium is replaced with TM-1 to TM-6 containing 10^−10 to 10^−6 M dexamethasone (Sigma), a general non-specific lineage-inductive agent (TABLE 13). Control and treated cultures are propagated for an additional 30-45 days with medium changes every other day. Four culture wells are used per concentration per experiment. During the 0-45 day time period the cultures are examined subjectively for changes in morphological characteristics on a daily basis. Alterations in phenotypic expression are correlated with the days of treatment and associated insulin or dexamethasone concentrations. The experiment is then repeated utilizing these parameters to confirm objectively the phenotypic expression markers using established histological, functional/histochemical, ELICA/flow cytometry, and molecular assays (TABLE 13).

[1] = system: cells isolated from granulation tissue; assay: Dexamethasone treatment of cells from granulation tissue (wound chambers), assays for phenotypes; type: cell-based, rat
progenitor stem cells = assay: Proliferation and phenotypic responses to bioactive factors: progenitor cells; type: cell-based; conditions: for Phenotypic Expression, Progenitor: presence and approximate distribution of differentiated phenotypes within the culture wells
Source text: as §1, §2

Swiss-3T3 cells = assay: Dexamethasone treatment of Swiss-3T3 cells, assay of phenotypes; type: cell-based, mouse
Procedure: Frozen 3T3 cells were then thawed, cell viability was determined using 0.4% Typan Blue in PBS with a hemocytometer (Denhardt et al., 1991; Domin and Rozengurt, 1993), and the cells were plated in 24 well plates (Corning Glassworks, Corning, N.Y.), precoated with 1% gelatin at a density of 5000 cells/well. Cells were cultured in EMEM containing 10% horse serum and varying concentrations of dexamethasone (Sigma, Salom, Mo.). Four wells served as controls and received medium without dexamethasone. Four wells each received medium containing 10^−10 M, 10^−9 M, 10^−8 M, 10^−7 M, 10^−6 M dexamethasone. The medium was changed every other day and cultures were examined using phase contrast microscopy for the appearance of different phenotypes.
• Bone—The presence of calcified tissue was assayed by Von Kossa's staining of calcium phosphate as described by Humason. Briefly, the culture medium was removed, and the plates were rinsed twice with the DPBS. The cells were fixed with 0.5 ml of 10% formalin for 3-5 minutes, then rinsed four times with distilled water. One half of a milliliter of freshly prepared 2% silver nitrate solution was then added, and the cells were incubated in the dark for 10 minutes. After incubation, the silver nitrate solution was removed and the cells were rinsed five times with distilled water. Approximately 0.5 ml of distilled water was left on each well. The plate was exposed to bright light for 15 minutes against a white background to reflect light. The plates were again rinsed five times with distilled water and quickly dehydrated with 100% ethanol. The plates were made permanent with glycerin jelly. Confirmation of the presence of calcium phosphate was performed by pretreating selected cultures with 1% weight/volume [ethylene bis(oxyethylenenitrilo)]-tetraacetic acid, a specific calcium chelator, in Ca, MG-free buffer for 1 hour before incubation in the silver nitrate solution. • Muscle—The cells were stained with the MF-20 antibody to sarcomeric myosin (Hybridoma Bank, Ames Iowa) by means of a modified procedure of Young et. al., 1992b. […]

cardiac myocytes = assay: Beat rate of binucleated beating cells in dexamethasone-treated Swiss-3T3 cultures exposed to isoproterenol and propanolol; type: cell-based, mouse
Source text: The wells were then washed six times with EMEM+10% horse serum and viewed on a Nikon Diaphot with fluorescent attachment. • Cardiac muscle—Cardiac myocytes were identified based on their large binucleated nuclei and their reactions to inotropic and chronotropic agents.

Row | Compound | Proliferation, Pluripotent: number of times the agent increased the DNA content per well versus its respective control (pluripotent stem cells) | dexamethasone concentrations at which cartilage nodules appeared [1] | dexamethasone concentrations at which fibroblasts appeared ([1]; after 3 weeks) | dexamethasone concentrations at which adipocytes appeared ([1]; first appeared at 2 weeks) | Proliferation, Progenitor: number of times the agent increased the DNA content per well versus its respective control (progenitor stem cells) | dexamethasone concentration at which binucleated beating cells appeared (Swiss-3T3 cells; 4 weeks in culture) | dexamethasone concentration at which myotubes appeared (Swiss-3T3 cells; 14 days) | dexamethasone concentration at which most adipocytes appeared (Swiss-3T3 cells; after two weeks treatment) | beat rate (cardiac myocytes; cells treated with 10^−6 M isoproterenol) | Beats per minute (cardiac myocytes; n = 5, 10−6M) | activity on pluripotent and progenitor stem cells, in words (pluripotent stem cells) | Phenotypic Expression, Pluripotent (pluripotent stem cells) | Phenotypic Expression, Progenitor (progenitor stem cells)
1 | C[C@@H]1C[C@H]2[C@@H]3CCC4=CC(=O)C=C[C@]4(C)[C@@]3(F)[C@@H](O)C[C@]2(C)[C@@]1(O)C(=O)CO [Dex, dexamethasone] | − | 10^−9-10^−6 M | 10^−9-10^−7 M | 10^−8-10^−6 M | − | 10^−7-10^−6 M | 10^−9-10^−6 M | 10^−8-10^−6 M |  |  |  |  | 
2 | CC(C)NCC(O)c1ccc(O)c(O)c1 (stereo not shown) [Isoproteronol, isoproterenol] |  |  |  |  |  |  |  |  | 85 beats per minute | 87.4± * Beats per minute |  |  | 
3 | IGF-I: insulin-like growth factor-I | 1 times |  |  |  | 1 times |  |  |  |  |  | stimulated lineage-progression in all progenitor cells, but had no measurable effect on pluripotent cells | 0 | All+++
4 | IGF-II: insulin-like growth factor-II | 1 times |  |  |  | 1 times |  |  |  |  |  | stimulated lineage-progression in all progenitor cells, but had no measurable effect on pluripotent cells | 0 | All+++
5 | PDGF-AA: Platelet-derived growth factor-AA | 16^b times |  |  |  | 16 times |  |  |  |  |  | stimulated proliferation in pluripotent cells and in all lineages of progenitor cells | 0 | All+
6 | PDGF-BB: platelet-derived growth factor-BB | 19 times |  |  |  | 19 times |  |  |  |  |  | stimulated proliferation in pluripotent cells and in all lineages of progenitor cells | 0 | All+
7 | TGF-β | −^c |  |  |  | − |  |  |  |  |  | stimulated lineage-progression in fibrogenic progenitor cells, inhibited lineage-progression in all other progenitor cells, and had no effect on pluripotent cells | 0 | F++
8 | b-FGF: Basic-fibroblast growth factor | 1 times |  |  |  | 1 times |  |  |  |  |  | stimulated lineage-progression in fibrogenic progenitor cells, inhibited lineage-progression in all other progenitor cells, and had no effect on pluripotent cells | 0 | F++
